Laboratory results taken from US10738040B2, “Compounds, compositions, and methods for increasing CFTR activity” (Proteostasis Therapeutics, Inc., priority 2014, dated 2020).

molecular target: T1, ΔF508-CFTR (Homo sapiens, UniProt P13569, DEL508-508); test: hBE equivalent current (Ieq) assay; format: cell-based; conditions: compound at 10 uM and VX-809 at 1 uM, relative to VX-809 (1 uM); primary lung epithelial cells homozygous for ΔF508, 24 hours treatment; AUC of equivalent chloride current
T1 construct: Primary lung epithelial cells homozygous for the Cystic Fibrosis-causing ΔF508 mutation were differentiated; endogenous in cells; host or cells: primary human lung (bronchial) epithelial cells homozygous for ΔF508, differentiated at air-liquid interface
T1 sequence (P13569 with tags, fused parts or gaps DEL508-508): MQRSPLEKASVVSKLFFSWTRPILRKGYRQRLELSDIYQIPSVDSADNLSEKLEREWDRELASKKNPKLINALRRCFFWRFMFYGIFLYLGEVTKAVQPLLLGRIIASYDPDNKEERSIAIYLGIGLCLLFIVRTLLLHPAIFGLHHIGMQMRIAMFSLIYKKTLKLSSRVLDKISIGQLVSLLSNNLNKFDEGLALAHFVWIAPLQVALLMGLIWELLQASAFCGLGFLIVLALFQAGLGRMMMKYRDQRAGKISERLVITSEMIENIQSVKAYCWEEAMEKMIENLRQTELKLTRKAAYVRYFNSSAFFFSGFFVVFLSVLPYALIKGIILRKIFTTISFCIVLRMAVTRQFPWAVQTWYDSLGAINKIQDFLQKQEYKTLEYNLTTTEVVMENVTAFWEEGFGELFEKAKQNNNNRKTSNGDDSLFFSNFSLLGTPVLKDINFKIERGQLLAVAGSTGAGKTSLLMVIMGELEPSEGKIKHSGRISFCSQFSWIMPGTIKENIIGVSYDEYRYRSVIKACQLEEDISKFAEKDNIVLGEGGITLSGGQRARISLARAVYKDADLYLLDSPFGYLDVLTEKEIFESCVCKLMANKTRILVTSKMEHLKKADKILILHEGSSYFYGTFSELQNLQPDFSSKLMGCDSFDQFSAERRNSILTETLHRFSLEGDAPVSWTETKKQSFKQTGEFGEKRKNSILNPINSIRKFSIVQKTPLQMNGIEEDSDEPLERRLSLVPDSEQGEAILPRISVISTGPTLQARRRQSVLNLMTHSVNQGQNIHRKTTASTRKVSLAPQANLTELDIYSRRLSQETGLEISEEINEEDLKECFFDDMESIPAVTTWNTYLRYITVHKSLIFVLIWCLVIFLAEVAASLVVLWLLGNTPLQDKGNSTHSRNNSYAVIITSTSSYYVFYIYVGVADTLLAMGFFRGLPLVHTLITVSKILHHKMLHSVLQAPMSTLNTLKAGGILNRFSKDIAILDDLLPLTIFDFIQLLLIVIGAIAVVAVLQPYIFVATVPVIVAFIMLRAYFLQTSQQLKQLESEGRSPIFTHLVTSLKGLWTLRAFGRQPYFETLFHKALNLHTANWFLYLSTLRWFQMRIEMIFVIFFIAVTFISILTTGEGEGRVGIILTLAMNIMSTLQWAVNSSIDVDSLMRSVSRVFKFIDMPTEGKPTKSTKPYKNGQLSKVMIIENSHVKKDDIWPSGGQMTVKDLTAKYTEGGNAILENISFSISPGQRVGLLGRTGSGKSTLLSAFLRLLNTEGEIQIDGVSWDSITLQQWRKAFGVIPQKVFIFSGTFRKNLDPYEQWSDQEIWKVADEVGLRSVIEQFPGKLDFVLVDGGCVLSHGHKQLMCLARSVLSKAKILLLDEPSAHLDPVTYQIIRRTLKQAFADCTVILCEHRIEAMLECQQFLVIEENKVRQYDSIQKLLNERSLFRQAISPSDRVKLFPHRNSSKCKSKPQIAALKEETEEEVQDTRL
Protocol: ii. hBE Equivalent Current (Ieq) Assay
Primary lung epithelial cells homozygous for the Cystic Fibrosis-causing ΔF508 mutation were differentiated for a minimum of 4 weeks in an air-liquid interface on Costar 24 well HTS filter plates prior to the equivalent current (Ieq) measurements. Cells were apically mucus-washed for 30 minutes 24 h prior to treatment with compounds. The basolateral media was removed and replaced with media containing the compound of interest diluted to its final concentration from DMSO stocks. Treated cells were incubated at 37° C. and 5% CO2 for 24 hours. At the end of the treatment period, the media was changed to the Ieq experimental solution for 30 minutes before the experiment and plates are maintained in a CO2-free incubator during this period. The plates containing the cells were then placed in pre-warmed heating blocks at 36° ° C.±0.5 for 15 minutes before measurements are taken. The transepithelial voltage (VT) and conductance (GT) were measured using a custom 24 channel current clamp (TECC-24) with 24 well electrode manifold. The Ieq assay measurements were made following additions with standardized time periods: • 1. The baseline VT and GT values were measured for approximately 20 minutes. • 2. Benzamil was added to block ENaC for 15 minutes. • 3. Forskolin plus VX-770 (ivacaftor) were added to maximally activate ΔF508-CFTR for 27 minutes. • 4. Bumetanide was added to inhibit the NaK2Cl cotransporter and shut-off secretion of chloride.
The activity data captured was the area under the curve (AUC) for the traces of the equivalent chloride current. The AUC was collected from the time of the forskolin/VX-770 addition until the inhibition by bumetanide addition. Correction in response to compound treatment was scored as the increase in the AUC for compound-treated samples over that of vehicle-treated samples.

| SMILES | Ieq (% VX-809) |
| --- | --- |
| C[C@H](O)c1cn([C@H]2C[C@H](NC(=O)c3cc(-c4ccccc4)on3)C2)nn1 | ** (activity ≥200% of VX-809 (1 uM) with compound at 10 uM and VX-809 at 1 uM) |
| C[C@@H](O)c1cn([C@H]2C[C@H](NC(=O)c3cc(-c4ccccc4)on3)C2)nn1 | ** (activity ≥200% of VX-809 (1 uM) with compound at 10 uM and VX-809 at 1 uM) |
| C[C@H](O)c1nnc(C[C@H]2C[C@@H](NC(=O)c3cc(-c4ccccc4)on3)C2)s1 | ** (activity ≥200% of VX-809 (1 uM) with compound at 10 uM and VX-809 at 1 uM) |
| C[C@@H](O)c1nnc(C[C@H]2C[C@@H](NC(=O)c3cc(-c4ccccc4)on3)C2)s1 | ** (activity ≥200% of VX-809 (1 uM) with compound at 10 uM and VX-809 at 1 uM) |
| O=C(N[C@H]1C[C@@H](c2nnc(CO)o2)C1)c1cc(-c2ccccc2)on1 | ** (activity ≥200% of VX-809 (1 uM) with compound at 10 uM and VX-809 at 1 uM) |
| O=C(N[C@H]1C[C@@H](c2nnc([C@@H](O)CO)s2)C1)c1cc(-c2ccccc2)on1 | ** (activity ≥200% of VX-809 (1 uM) with compound at 10 uM and VX-809 at 1 uM) |
| O=C(N[C@H]1C[C@H](n2cc(CO)cn2)C1)c1cc(-c2ccccc2)on1 | * (activity 100-200% of VX-809 (1 uM) with compound at 10 uM and VX-809 at 1 uM) |
| C[C@@H](O)c1cnn([C@H]2C[C@H](NC(=O)c3cc(-c4ccccc4)on3)C2)c1 | ** (activity ≥200% of VX-809 (1 uM) with compound at 10 uM and VX-809 at 1 uM) |
| C[C@H](O)c1cnn([C@H]2C[C@H](NC(=O)c3cc(-c4ccccc4)on3)C2)c1 | ** (activity ≥200% of VX-809 (1 uM) with compound at 10 uM and VX-809 at 1 uM) |
| O=C(NC1CC(n2cc(CO)cn2)C1)c1cc(-c2ccccc2)on1 (centres unmarked) | ** (activity ≥200% of VX-809 (1 uM) with compound at 10 uM and VX-809 at 1 uM) |
| O=C(N[C@H]1C[C@H](n2ccc(CO)n2)C1)c1cc(-c2ccccc2)on1 | ** (activity ≥200% of VX-809 (1 uM) with compound at 10 uM and VX-809 at 1 uM) |
| C[C@@H](O)c1ccn([C@H]2C[C@H](NC(=O)c3cc(-c4ccccc4)on3)C2)n1 | ** (activity ≥200% of VX-809 (1 uM) with compound at 10 uM and VX-809 at 1 uM) |
| C[C@H](O)c1ccn([C@H]2C[C@H](NC(=O)c3cc(-c4ccccc4)on3)C2)n1 | ** (activity ≥200% of VX-809 (1 uM) with compound at 10 uM and VX-809 at 1 uM) |
| O=C(NC1CC(n2ccc(CO)n2)C1)c1cc(-c2ccccc2)on1 (centres unmarked) | ** (activity ≥200% of VX-809 (1 uM) with compound at 10 uM and VX-809 at 1 uM) |
| O=C(N[C@H]1C[C@@H](c2nc(CO)no2)C1)c1cc(-c2ccccc2)on1 | ** (activity ≥200% of VX-809 (1 uM) with compound at 10 uM and VX-809 at 1 uM) |
| C[C@H](O)c1noc([C@H]2C[C@@H](NC(=O)c3cc(-c4ccccc4)on3)C2)n1 | * (activity 100-200% of VX-809 (1 uM) with compound at 10 uM and VX-809 at 1 uM) |
| C[C@@H](O)c1noc([C@H]2C[C@@H](NC(=O)c3cc(-c4ccccc4)on3)C2)n1 | * (activity 100-200% of VX-809 (1 uM) with compound at 10 uM and VX-809 at 1 uM) |
| C[C@@H](O)c1noc(C2CC(NC(=O)c3cc(-c4ccccc4)on3)C2)n1 (some centres unmarked) | ** (activity ≥200% of VX-809 (1 uM) with compound at 10 uM and VX-809 at 1 uM) |
| C[C@H](O)c1noc(C2CC(NC(=O)c3cc(-c4ccccc4)on3)C2)n1 (some centres unmarked) | ** (activity ≥200% of VX-809 (1 uM) with compound at 10 uM and VX-809 at 1 uM) |
| C[C@H](O)c1nc([C@H]2C[C@@H](NC(=O)c3cc(-c4ccccc4)on3)C2)no1 | * (activity 100-200% of VX-809 (1 uM) with compound at 10 uM and VX-809 at 1 uM) |
| C[C@@H](O)c1nc([C@H]2C[C@@H](NC(=O)c3cc(-c4ccccc4)on3)C2)no1 | * (activity 100-200% of VX-809 (1 uM) with compound at 10 uM and VX-809 at 1 uM) |

| SMILES | Ieq (% VX-809) |
| --- | --- |
| O=C(N[C@H]1C[C@H](CCO)C1)c1cc(-c2ccccc2)on1 | ** (activity ≥200% of VX-809 (1 uM) with compound at 10 uM and VX-809 at 1 uM) |
| O=C(N[C@H]1C[C@@H](CCO)C1)c1cc(-c2ccccc2)on1 | ** (activity ≥200% of VX-809 (1 uM) with compound at 10 uM and VX-809 at 1 uM) |
| CS(=O)(=O)NC[C@H]1C[C@@H](NC(=O)c2cc(-c3ccccc3)on2)C1 | * (activity 100-200% of VX-809 (1 uM) with compound at 10 uM and VX-809 at 1 uM) |
| C[C@@H](O)c1nnc(C[C@H]2C[C@@H](NC(=O)c3cc(-c4ccccc4)on3)C2)o1 | ** (activity ≥200% of VX-809 (1 uM) with compound at 10 uM and VX-809 at 1 uM) |
| C[C@H](O)c1nnc(C[C@H]2C[C@H](NC(=O)c3cc(-c4ccccc4)on3)C2)o1 | ** (activity ≥200% of VX-809 (1 uM) with compound at 10 uM and VX-809 at 1 uM) |
| C[C@H](O)c1nnc(CC2CC(NC(=O)c3cc(-c4ccccc4)on3)C2)o1 (some centres unmarked) | * (activity 100-200% of VX-809 (1 uM) with compound at 10 uM and VX-809 at 1 uM) |
| C[C@@H](O)c1nnc(C2CC(NC(=O)c3cc(-c4ccccc4F)on3)C2)o1 (some centres unmarked) | * (activity 100-200% of VX-809 (1 uM) with compound at 10 uM and VX-809 at 1 uM) |
| C[C@@H](O)c1nnc([C@H]2C[C@@H](NC(=O)c3cc(-c4ccc(F)c(F)c4)on3)C2)o1 | * (activity 100-200% of VX-809 (1 uM) with compound at 10 uM and VX-809 at 1 uM) |
| C[C@@H](O)c1nnc([C@H]2C[C@@H](NC(=O)c3cc(-c4ccc(F)cc4F)on3)C2)o1 | * (activity 100-200% of VX-809 (1 uM) with compound at 10 uM and VX-809 at 1 uM) |
| C[C@@H](O)c1nnc([C@H]2C[C@@H](NC(=O)c3cc(-c4ccc(O)cc4)on3)C2)o1 | * (activity 100-200% of VX-809 (1 uM) with compound at 10 uM and VX-809 at 1 uM) |
| C[C@@H](O)c1nnc([C@H]2C[C@@H](NC(=O)c3cc(-c4ccc(O)c(O)c4)on3)C2)o1 | * (activity 100-200% of VX-809 (1 uM) with compound at 10 uM and VX-809 at 1 uM) |
| C[C@@H](O)c1nnc([C@H]2C[C@@H](NC(=O)c3cc(-c4cccc(O)c4)on3)C2)o1 | * (activity 100-200% of VX-809 (1 uM) with compound at 10 uM and VX-809 at 1 uM) |
| C[C@@H](O)c1nnc([C@H]2C[C@@H](NC(=O)c3cc(-c4cccc(F)c4)on3)C2)o1 | * (activity 100-200% of VX-809 (1 uM) with compound at 10 uM and VX-809 at 1 uM) |
| CC(=O)O[C@H](C)c1nnc([C@H]2C[C@H](NC(=O)c3cc(-c4ccccc4)on3)C2)o1 | ** (activity ≥200% of VX-809 (1 uM) with compound at 10 uM and VX-809 at 1 uM) |
| C[C@@H](OC(=O)c1ccccc1)c1nnc([C@H]2C[C@H](NC(=O)c3cc(-c4ccccc4)on3)C2)o1 | * (activity 100-200% of VX-809 (1 uM) with compound at 10 uM and VX-809 at 1 uM) |
| O=C(N[C@H]1C[C@H](c2nnc(C3CCC3)o2)C1)c1cc(-c2ccccc2)on1 | ** (activity ≥200% of VX-809 (1 uM) with compound at 10 uM and VX-809 at 1 uM) |
| CC(C)CO[C@H](C)c1nnc([C@H]2C[C@H](NC(=O)c3cc(-c4ccccc4)on3)C2)o1 | * (activity 100-200% of VX-809 (1 uM) with compound at 10 uM and VX-809 at 1 uM) |
| C[C@@H](O)c1nnc(C2CCCC(NC(=O)c3cc(-c4ccccc4)on3)C2)o1 (some centres unmarked) | * (activity 100-200% of VX-809 (1 uM) with compound at 10 uM and VX-809 at 1 uM) |
| O=C(N[C@H]1CC[C@@H](c2nnc(CO)o2)CC1)c1cc(-c2ccccc2)on1 | * (activity 100-200% of VX-809 (1 uM) with compound at 10 uM and VX-809 at 1 uM) |
| O=C(NC1CCCC(n2cc(CO)nn2)C1)c1cc(-c2ccccc2)on1 (centres unmarked) | * (activity 100-200% of VX-809 (1 uM) with compound at 10 uM and VX-809 at 1 uM) |
